Assay results taken from US20170253607A1, “LONG-ACTING HIV PROTEASE INHIBITOR” (Shionogi & Co., Ltd., priority 2014, published 2017).

Biological target: HIV-1 PR (Human immunodeficiency virus type 1 group M subtype B, UniProt P04585)
Experiment: HIV-protease inhibitory activity assay (FRET peptide substrate)
Assay type: biochemical
Conditions: Test Example 1
Protocol: Test Example 1: HIV-Protease Inhibitory Activity Assay
The HIV-1 PR assay was performed by using a FRET (Fluorescence Resonance Energy Transfer) peptide substrate (AnaSpec, Inc., Fremont, Calif.). Initially in the intact FRET peptide, the fluorescence of HiLyte Fluor 488 is quenched by QXL 520. Upon substrate cleavage by PR, the fluorescence is recovered and can be monitored. Test compounds diluted in DMSO was plated to the wells of 384-well plate. Then, mixed with assay buffer (0.1 mol/L NaAc containing 0.5 mol/L NaCl, 1 mmol/L EDTA, 1 mmol/L DTT, and 0.05% Tween 20, pH 4.8) in the presence or absence of HIV-1 PR (0.83 ng), and let it stand for 5 minutes at room temperature. Background fluorescence intensity was measured and let it stand for another 15 minutes at room temperature. The enzyme reaction was started by adding substrate diluted in assay buffer at final concentration of 2 μmol/L, and let it stand for 60 minutes at room temperature. After 60 minutes, the fluorescence intensity was measured. Fluorescence intensity was measured with excitation and emission wavelengths of 485 nm and 535 nm, respectively.
IC50 values were determined using non-linear regression four-parameter logistic equation, y=A+((B−A)/(1+((C/x)̂D))) where A=minimum inhibition, B=maximum inhibition, C=log IC50, D=slope factor, x=concentration of compound and y=% inhibition.

| Compound | IC50 [nM] |
| --- | --- |
| COc1ccc(S(=O)(=O)N(CC(C)C)CC(O)C(Cc2ccc(OCc3ccccc3-c3ccc4c(c3)C(=O)C(c3ccc(F)cc3)C4=O)cc2)NC(=O)OC2COC3(C)OCCC23)cc1 (stereo not shown) [Compound I-70] | 1.06 |
| COc1ccc(S(=O)(=O)N(CC(C)C)CC(O)C(Cc2ccc(OCc3ccccc3-c3ccc4c(c3)C(=O)C(c3ccc(C(F)(F)F)cc3)C4=O)cc2)NC(=O)OC2COC3(C)OCCC23)cc1 (stereo not shown) [Compound I-71] | 1.77 |
| COc1ccc(S(=O)(=O)N(CC(C)C)CC(O)C(Cc2ccc(OCc3ccccc3-c3ccc4c(c3)C(=O)C(C3CCCCC3)C4=O)cc2)NC(=O)OC2COC3(C)OCCC23)cc1 (stereo not shown) [Compound I-72] | 1.45 |
| COc1ccc(S(=O)(=O)N(CC(C)C)CC(O)C(Cc2ccc(OCc3ccccc3-c3ccc4c(C(=O)O)c(-c5ccc(Cl)cc5C)sc4c3)cc2)NC(=O)OC2COC3(C)OCCC23)cc1 (stereo not shown) [Compound I-73] | 4.73 |
| COc1ccc(S(=O)(=O)N(CC(C)C)CC(O)C(Cc2ccc(OCc3ccccc3-c3ccc4c(O)c(-c5ccc(F)cc5)c(=O)n(-c5ccccc5)c4c3)cc2)NC(=O)OC2COC3(C)OCCC23)cc1 (stereo not shown) [Compound I-75] | 1.19 |
| CCCCC1(Cc2ccc(COc3ccc(CC(NC(=O)OC4COC5(C)OCCC45)C(O)CN(CC(C)C)S(=O)(=O)c4ccc(OC)cc4)cc3)cc2)C(=O)N(c2ccccc2)N(c2ccccc2)C1=O (stereo not shown) [Compound I-76] | 1.35 |
| COc1ccc(S(=O)(=O)N(CC(C)C)CC(O)C(Cc2ccc(OCc3ccc(C#N)cc3-c3sc4c(c3C(=O)O)CC(C)(C)CC4)cc2)NC(=O)OC2COC3(C)OCCC23)cc1 (stereo not shown) [Compound I-80] | 1.75 |
| COc1ccc(S(=O)(=O)N(CC(C)C)CC(O)C(Cc2ccc(OCc3csc(-c4sc5c(c4C(=O)O)CC(C)(C)CC5)n3)cc2)NC(=O)OC2COC3(C)OCCC23)cc1 (stereo not shown) [Compound I-87] | 1.32 |
| COc1ccc(S(=O)(=O)N(CC(C)C)CC(O)C(Cc2ccc(OCc3ncsc3-c3sc4c(c3C(=O)O)CC(C)(C)CC4)cc2)NC(=O)OC2COC3(C)OCCC23)cc1 (stereo not shown) [Compound I-89] | 1.11 |
| COc1ccc(S(=O)(=O)N(CC(C)C)CC(O)C(Cc2ccc(OCc3cccnc3-c3sc4c(c3C(=O)O)CC(C)(C)CC4)cc2)NC(=O)OC2COC3(C)OCCC23)cc1 (stereo not shown) [Compound I-90] | 1.32 |
| COc1ccc(S(=O)(=O)N(CC(C)C)CC(O)C(Cc2ccc(OCc3ccc(-c4sc5c(c4C(=O)O)CC(C)(C)CC5)c(C)c3)cc2)NC(=O)OC2COC3(C)OCCC23)cc1 (stereo not shown) [Compound I-91] | 1.35 |
| COc1ccc(S(=O)(=O)N(CC(C)C)CC(O)C(Cc2ccc(OCc3cccc(-c4sc5c(c4C(=O)O)CC(C)(C)CC5)c3C)cc2)NC(=O)OC2COC3(C)OCCC23)cc1 (stereo not shown) [Compound I-92] | 1.88 |
| COc1ccc(S(=O)(=O)N(CC(C)C)CC(O)C(Cc2ccc(OCC3CCCN3c3ccccc3-c3sc4c(c3C(=O)O)CC(C)(C)CC4)cc2)NC(=O)OC2COC3(C)OCCC23)cc1 (stereo not shown) [Compound I-95] | 2.09 |
| COc1ccc(S(=O)(=O)N(CC(C)C)CC(O)C(Cc2ccc(OCc3ccccc3-c3sccc3C(=O)O)cc2)NC(=O)OC2COC3(C)OCCC23)cc1 (stereo not shown) [Compound I-97] | 0.82 |
| COc1ccc(S(=O)(=O)N(CC(C)C)CC(O)C(Cc2ccc(OC3CCCN(c4ccccc4-c4sc5c(c4C(=O)O)CC(C)(C)CC5)C3)cc2)NC(=O)OC2COC3(C)OCCC23)cc1 (stereo not shown) [Compound I-100] | 1.98 |
| COc1ccc(S(=O)(=O)N(CC(C)C)CC(O)C(Cc2ccc(COC3CCCN3c3ccccc3-c3sc4c(c3C(=O)O)CC(C)(C)CC4)cc2)NC(=O)OC2COC3(C)OCCC23)cc1 (stereo not shown) [Compound I-103] | 3.75 |
| CC(C)CN(CC(O)C(Cc1ccc(CCc2sc3c(c2C(=O)O)CC(C)(C)CC3)cc1)NC(=O)OC1COC2(C)OCCC12)S(=O)(=O)c1ccc2ncsc2c1 (stereo not shown) [Compound I-107] | 2.37 |
| COc1ccc(S(=O)(=O)N(CC(C)C)CC(O)C(Cc2ccc(-c3sccc3C(=O)O)cc2)NC(=O)OC2COC3(C)OCCC23)cc1 (stereo not shown) [Compound I-108] | 1.12 |
| COc1ccc(S(=O)(=O)N(CC(C)C)CC(O)C(Cc2ccc(-c3cc(C(=O)O)cs3)cc2)NC(=O)OC2COC3(C)OCCC23)cc1 (stereo not shown) [Compound I-109] | 1.2 |
| COc1ccc(S(=O)(=O)N(CC(C)C)CC(O)C(Cc2ccc(OCc3ncccc3-c3ccccc3-c3sc4c(c3C(=O)O)CC(C)(C)CC4)cc2)NC(=O)OC2COC3(C)OCCC23)cc1 (stereo not shown) [Compound I-110] | 1.67 |
| COc1ccc(S(=O)(=O)N(CC(C)C)CC(O)C(Cc2ccc(OCc3ncsc3-c3ccc(-c4sc5c(c4C(=O)O)CC(C)(C)CC5)cc3)cc2)NC(=O)OC2COC3(C)OCCC23)cc1 (stereo not shown) [Compound I-111] | 1.48 |
| COc1ccc(S(=O)(=O)N(CC(C)C)CC(O)C(Cc2ccc(NCc3cccnc3-c3sc4c(c3C(=O)O)CC(C)(C)CC4)cc2)NC(=O)OC2COC3(C)OCCC23)cc1 (stereo not shown) [Compound I-128] | 2.19 |

| Compound | IC50 [nM] |
| --- | --- |
| COc1ccc(S(=O)(=O)N(CC(C)C)CC(O)C(Cc2ccc(N(C)Cc3cccnc3-c3sc4c(c3C(=O)O)CC(C)(C)CC4)cc2)NC(=O)OC2COC3(C)OCCC23)cc1 (stereo not shown) [Compound I-129] | 3.09 |
| COc1ccc(S(=O)(=O)N(CC(C)C)CC(O)C(Cc2ccc(OCc3ccccc3-c3oc4c(c3C(=O)O)CCCC4)cc2)NC(=O)OC2COC3(C)OCCC23)cc1 (stereo not shown) [Compound I-130] | 1.12 |
| COc1ccc(S(=O)(=O)N(CC(C)C)CC(O)C(Cc2ccc(Oc3ccc(-c4sc5c(c4C(=O)O)CC(C)(C)CC5)cc3)cc2)NC(=O)OC2COC3(C)OCCC23)cc1 (stereo not shown) [Compound I-133] | 1.53 |
| COc1ccc(S(=O)(=O)N(CC(C)C)CC(O)C(Cc2ccc(Oc3ccc(-c4sc5c(c4C(=O)O)CC(C)(C)CC5)c(C(F)(F)F)c3)cc2)NC(=O)OC2COC3(C)OCCC23)cc1 (stereo not shown) [Compound I-135] | 6.8 |
| COc1ccc(S(=O)(=O)N(CC(C)C)CC(O)C(Cc2ccc(Oc3ccc(-c4sc5c(c4C(=O)O)CC(C)(C)CC5)c(OC)c3)cc2)NC(=O)OC2COC3(C)OCCC23)cc1 (stereo not shown) [Compound I-136] | 1.4 |
| COc1ccc(S(=O)(=O)N(CC2CCCC2)CC(O)C(Cc2ccc(OCc3ccccc3-n3nc(C(=O)O)c4c3CCC(C(F)(F)F)C4)cc2)NC(=O)OC2COC3(C)OCCC23)cc1 (stereo not shown) [Compound I-141] | 1.74 |
| COc1ccc(S(=O)(=O)N(CC(C)C)CC(O)C(Cc2ccc(OCc3ccccc3-n3nc(C(=O)O)c4c3CCC(C(F)(F)F)C4)cc2)NC(=O)OC2COC3(C)OCCC23)cc1 (stereo not shown) [Compound I-142] | 1.72 |
| COc1ccc(S(=O)(=O)N(CC(C)C)CC(O)C(Cc2ccc(OCc3ccccc3-n3nc4c(c3C(=O)O)Cc3ccccc3-4)cc2)NC(=O)OC2COC3(C)OCCC23)cc1 (stereo not shown) [Compound I-143] | 0.99 |
| COc1ccc(S(=O)(=O)N(CC(C)C)CC(O)C(Cc2ccc(OCc3ccccc3-n3nc4c(c3C(=O)O)CC(c3ccccc3)CC4)cc2)NC(=O)OC2COC3(C)OCCC23)cc1 (stereo not shown) [Compound I-144] | 0.8 |
| COc1ccc(S(=O)(=O)N(CC(C)C)CC(O)C(Cc2ccc(OCc3ccc(C(=O)O)c(-c4ccc(F)cc4F)c3)cc2)NC(=O)OC2COC3(C)OCCC23)cc1 (stereo not shown) [Compound I-149] | 1.27 |
| CC(C)CN(CC(O)C(Cc1ccc(OCc2ccc(C(=O)O)cc2-c2ccc(F)cc2F)cc1)NC(=O)OC1COC2(C)OCCC12)S(=O)(=O)c1ccc2ncsc2c1 (stereo not shown) [Compound I-150] | 0.93 |
| CC(C)CN(CC(O)C(Cc1ccc(OCc2cc(C(=O)O)ccc2-c2ccc(F)cc2F)cc1)NC(=O)OC1COC2(C)OCCC12)S(=O)(=O)c1ccc2ncsc2c1 (stereo not shown) [Compound I-151] | 1.88 |
| COc1ccc(S(=O)(=O)N(CC(C)C)CC(O)C(Cc2ccc(OCc3ccc(-c4ccc(F)cc4F)c(C(=O)O)c3)cc2)NC(=O)OC2COC3(C)OCCC23)cc1 (stereo not shown) [Compound I-152] | 1.15 |
| COc1ccc(S(=O)(=O)N(CC(C)C)CC(O)C(Cc2ccc(OCc3cccc(-c4ccc(F)cc4F)c3C(=O)O)cc2)NC(=O)OC2COC3(C)OCCC23)cc1 (stereo not shown) [Compound I-153] | 1.08 |
| CC(C)CN(CC(O)C(Cc1ccc(OC(C(=O)O)c2ccc(-c3ccc(F)cc3F)cc2)cc1)NC(=O)OC1COC2(C)OCCC12)S(=O)(=O)c1ccc2ncsc2c1 (stereo not shown) [Compound I-154] | 1.87 |
| COc1ccc(S(=O)(=O)N(CC(C)C)CC(O)C(Cc2ccc(Oc3ccc(C(=O)O)c(-c4ccc(F)cc4F)c3)cc2)NC(=O)OC2COC3(C)OCCC23)cc1 (stereo not shown) [Compound I-155] | 1.37 |
| CC(C)CN(CC(O)C(Cc1ccc(OCc2ccc(C(=O)O)c(-c3ccc(F)cc3F)n2)cc1)NC(=O)OC1COC2(C)OCCC12)S(=O)(=O)c1ccc2ncsc2c1 (stereo not shown) [Compound I-156] | 1.3 |
| CC(C)CN(CC(O)C(Cc1ccc(OCc2cnc(C(=O)O)c(-c3ccc(F)cc3F)c2)cc1)NC(=O)OC1COC2(C)OCCC12)S(=O)(=O)c1ccc2ncsc2c1 (stereo not shown) [Compound I-157] | 1.22 |
| CC(C)CN(CC(O)C(Cc1ccc(OCc2ccccc2-c2ccccc2C(=O)N(C)C)cc1)NC(=O)OC1COC2(C)OCCC12)S(=O)(=O)c1ccc2ncsc2c1 (stereo not shown) [Compound I-160] | 0.96 |
| CC(C)CN(CC(O)C(Cc1ccc(OCc2ccc(-c3ccccc3)cc2C(=O)N(C)C)cc1)NC(=O)OC1COC2(C)OCCC12)S(=O)(=O)c1ccc2ncsc2c1 (stereo not shown) [Compound I-161] | 0.94 |
| CC(C)CN(CC(O)C(Cc1ccc(OCc2ccc3ccccc3c2C(N)=O)cc1)NC(=O)OC1COC2(C)OCCC12)S(=O)(=O)c1ccc2ncsc2c1 (stereo not shown) [Compound I-162] | 0.96 |
